Source: US20230061432A1, “NEW TECHNOLOGY TO CONJUGATE THE TACCALONOLIDE MICROTUBULE STABILIZERS WITH LINKERS/PAYLOADS” (priority 2019, published 2023)

Columns and labels:
[1] = unprotected form; Mottram et al. 2006; cited from earlier work
HeLa cells = assay: sulforhodamine B (SRB) antiproliferative assay; assay type: cell-based, human; settings: Homo sapiens, HeLa; Table 5; read-out: GI50 in HeLa
Source text: HCC1806 (CRL-2335) and HCC1937 (CRL-2336) human triple-negative breast cancer cells, HeLa (CCL-2) cervical cancer cells and SK-OV-3 (HTB-77) ovarian cancer cells were obtained from ATCC (Manassas, Va.) and validated by STR profiling (Genetica). SK-OV-3 cells stably overexpressing Pgp by adenoviral-mediated expression of MDR1 were obtained from Dr. Susan Kane and subcloned by limiting dilution to isolate the single-cell clones utilized in these studies as SK-OV-3-MDR-1-6/6 (Risinger, A. L. et al. (2008) Cancer Res. 68, 8881-8888). A single-cell clone from transfection of HeLa cells with βIII-tubulin, designated wild type βIII, was constructed and obtained from Dr. Richard Luduena (Risinger, A. L. et al. (2008) Cancer Res. 68, 8881-8888). HCC1806 and HCC1937 cells were cultured in RPMI 1640 media (Corning) with 10% FBS (Cellgro) and 50 μg/mL gentamicin (Gibco). HeLa, […] expressing HeLa, SK-OV-3 and SK-OV-3/MDR-1-6/6 cells were grown in BME media with Earle's salts (Gibco) with 10% FBS, 1× final 1% GlutaMax™ Supplement (Gibco), and […] gentamicin. The use of HeLa cells allows for the direct comparison of the in vitro potency as compared to other compounds of this class, which have been predominantly reported in this line and compound potencies are consistent among three additional cancer cell lines. HeLa cells were also used for ectopic expression of tubulin mutants due to the high degree of transfectability of this cell line. Cells were tested for mycoplasma contamination using the Mycoplasma Detection Kit-Quick Test (Cat: B39032, Lot: JW004).
The sulforhodamine B (SRB) assay was utilized to examine the antiproliferative and cytotoxic effects of the compounds (Skehan, P. et al. (1990) J. Natl. Cancer Inst. 82, 1107-1112; Vichai and Kirtikara (2006) Nat. Protoc. 1, 1112-1116). Approximately 2,000 cells per well (for SK-OV-3, HeLa and βIII-tubulin expressing HeLa) or 4,000 cells per well (for HCC1806 and HCC1937) were seeded in 96-well plates. For each biological replicate, cells were treated in triplicate with each concentration of compound or vehicle control for 48 h in a final volume of 200 μL. The plates were fixed with 10% trichloroacetic acid for protein precipitation of adherent cells and then washed with distilled water. 100 μL of SRB dye, which binds protein stoichiometrically, was added and then unbound dye removed with 1% acetic acid followed by the addition of 200 μL 10 mM Tris to solubilize the dye, which was quantified by absorbance at 560 nm. The percent growth of treated cells relative to the density at the time of drug addiction was calculated as compared to vehicle treated cells.

O=C(O)c1ccccc1-c1c2cc(F)c(=O)cc-2oc2cc(O)c(F)cc12 [Oregon Green, Oregon green]
pKa [1]: 4.8

CC(=O)O[C@H]1[C@H]2[C@@H]([C@@H](O)[C@@H](NC(=O)CCCN=[N+]=[N-])[C@H]3C[C@@H]4O[C@@H]4[C@H](OC(C)=O)[C@]23C)[C@@H]2[C@@H](O)[C@@H]3[C@H]([C@H](C)[C@H]4O[C@]45OC(=O)[C@@](C)(O)[C@]35C)[C@@]2(C)[C@H]1OC(C)=O [152E]
GI50 (HeLa cells): 0.09 µM

CC(=O)O[C@H]1[C@H]2[C@@H]([C@@H](O)[C@H](NC(=O)CCCN=[N+]=[N-])[C@H]3C[C@@H]4O[C@@H]4[C@H](OC(C)=O)[C@]23C)[C@@H]2[C@@H](O)[C@@H]3[C@H]([C@H](C)[C@H]4O[C@]45OC(=O)[C@@](C)(O)[C@]35C)[C@@]2(C)[C@H]1OC(C)=O [152D]
GI50 (HeLa cells): 0.12 µM

CC(=O)O[C@H]1[C@H]2[C@@H]([C@@H](O)[C@@H](NC(=O)CCNC(=O)c3ccc4c(c3)C(=O)OC43c4ccc(OC(=O)C(C)(C)C)cc4Oc4cc(OC(=O)C(C)(C)C)ccc43)[C@H]3C[C@@H]4O[C@@H]4[C@H](OC(C)=O)[C@]23C)[C@@H]2[C@@H](O)[C@@H]3[C@H]([C@H](C)[C@H]4O[C@]45OC(=O)[C@@](C)(O)[C@]35C)[C@@]2(C)[C@H]1OC(C)=O [163D]
GI50 (HeLa cells): 2 µM

CC(=O)Oc1cc2c(cc1F)C1(OC(=O)c3cc(C(=O)NCc4cn(CCCC(=O)N[C@@H]5[C@H](O)[C@H]6[C@@H]7[C@@H](O)[C@@H]8[C@H]([C@H](C)[C@H]9O[C@]9%10OC(=O)[C@@](C)(O)[C@]8%10C)[C@@]7(C)[C@@H](OC(C)=O)[C@@H](OC(C)=O)[C@@H]6[C@]6(C)[C@@H]5C[C@@H]5O[C@@H]5[C@@H]6OC(C)=O)nn4)ccc31)c1cc(F)c(OC(C)=O)cc1O2 [154J]
GI50 (HeLa cells): > 10 µM

CC(=O)O[C@H]1[C@H]2[C@@H]([C@@H](O)[C@@H](NC(=O)CCCCCCn3cc(COc4ccc5c(c4)Oc4cc(O)ccc4C54OC(=O)c5ccccc54)nn3)[C@H]3C[C@@H]4O[C@@H]4[C@H](OC(C)=O)[C@]23C)[C@@H]2[C@@H](O)[C@@H]3[C@H]([C@H](C)[C@H]4O[C@]45OC(=O)[C@@](C)(O)[C@]35C)[C@@]2(C)[C@H]1OC(C)=O (some centres unmarked) [158F]
GI50 (HeLa cells): 6 µM

CC(=O)O[C@H]1[C@H]2[C@@H]([C@@H](O)[C@@H](NC(=O)CCCn3cc(COc4ccc5c(c4)Oc4cc(O)ccc4C54OC(=O)c5ccccc54)nn3)[C@H]3C[C@@H]4O[C@@H]4[C@H](OC(C)=O)[C@]23C)[C@@H]2[C@@H](O)[C@@H]3[C@H]([C@H](C)[C@H]4O[C@]45OC(=O)[C@@](C)(O)[C@]35C)[C@@]2(C)[C@H]1OC(C)=O (some centres unmarked) [155G]
GI50 (HeLa cells): 8.4 µM

CC(=O)O[C@H]1[C@H]2[C@@H]([C@@H](O)[C@@H](NC(=O)CCCn3cc(COc4cc5c(cc4F)C4(OC(=O)c6ccccc64)c4cc(F)c(O)cc4O5)nn3)[C@H]3C[C@@H]4O[C@@H]4[C@H](OC(C)=O)[C@]23C)[C@@H]2[C@@H](O)[C@@H]3[C@H]([C@H](C)[C@H]4O[C@]45OC(=O)[C@@](C)(O)[C@]35C)[C@@]2(C)[C@H]1OC(C)=O (some centres unmarked) [155F]
GI50 (HeLa cells): 3.7 µM

CC(=O)O[C@H]1[C@H]2[C@@H]([C@@H](O)[C@@H](NC(=O)CNC(=O)c3ccc4c(c3)C(=O)OC43c4ccc(OC(=O)C(C)(C)C)cc4Oc4cc(OC(=O)C(C)(C)C)ccc43)[C@H]3C[C@@H]4O[C@@H]4[C@H](OC(C)=O)[C@]23C)[C@@H]2[C@@H](O)[C@@H]3[C@H]([C@H](C)[C@H]4O[C@]45OC(=O)[C@@](C)(O)[C@]35C)[C@@]2(C)[C@H]1OC(C)=O [164E]
GI50 (HeLa cells): 0.74 µM

O=C1OC2(c3ccc(O)cc3Oc3cc(O)ccc32)c2ccccc21 [fluorescein]
pKa [1]: 6.5

CC(=O)O[C@H]1[C@H]2C([C@@H](O)[C@@H](NC(=O)c3ccc4c(c3)C(=O)OC43c4ccc(OC(=O)C(C)(C)C)cc4Oc4cc(OC(=O)C(C)(C)C)ccc43)[C@H]3C[C@@H]4O[C@@H]4[C@H](OC(C)=O)[C@@]32C)[C@@H]2[C@@H](O)[C@@H]3[C@H]([C@H](C)[C@H]4O[C@]45OC(=O)[C@@](C)(O)[C@]35C)[C@@]2(C)[C@H]1OC(C)=O (some centres unmarked) [164B]
GI50 (HeLa cells): 0.031 µM

CC(=O)O[C@H]1[C@H]2[C@@H]([C@@H](O)[C@@H](NC(=O)CCCn3cc(CCC(=O)NCCCC[C@@H](NC(=O)[C@H](Cc4ccc(O)cc4)NC(=O)[C@H](CO)NC(=O)[C@H](Cc4c[nH]c5ccccc45)NC(=O)[C@H](Cc4c[nH]cn4)NC(=O)[C@@H]4CCC(=O)N4)C(=O)N[C@@H](CC(C)C)C(=O)N[C@@H](CCCNC(=N)N)C(=O)N4CCC[C@H]4C(=O)NCC(N)=O)nn3)[C@H]3C[C@@H]4O[C@@H]4[C@H](OC(C)=O)[C@]23C)[C@@H]2[C@@H](O)[C@@H]3[C@H]([C@H](C)[C@H]4O[C@]45OC(=O)[C@@](C)(O)[C@]35C)[C@@]2(C)[C@H]1OC(C)=O [171B]
GI50 (HeLa cells): 2.6 µM

CC(=O)O[C@H]1[C@H]2[C@@H]([C@@H](O)[C@@H](NC(=O)CCCCCCn3cc(COc4cc5c(cc4F)C4(OC(=O)c6ccccc64)c4cc(F)c(O)cc4O5)nn3)[C@H]3C[C@@H]4O[C@@H]4[C@H](OC(C)=O)[C@]23C)[C@@H]2[C@@H](O)[C@@H]3[C@H]([C@H](C)[C@H]4O[C@]45OC(=O)[C@@](C)(O)[C@]35C)[C@@]2(C)[C@H]1OC(C)=O (some centres unmarked) [158E]
GI50 (HeLa cells): > 10 µM

CC(=O)Oc1cc2c(cc1F)C1(OC(=O)c3cc(C(=O)NCCC(=O)N[C@@H]4[C@H](O)[C@H]5[C@@H]6[C@@H](O)[C@@H]7[C@H]([C@H](C)[C@H]8O[C@]89OC(=O)[C@@](C)(O)[C@]79C)[C@@]6(C)[C@@H](OC(C)=O)[C@@H](OC(C)=O)[C@@H]5[C@]5(C)[C@@H]4C[C@@H]4O[C@@H]4[C@@H]5OC(C)=O)ccc31)c1cc(F)c(OC(C)=O)cc1O2 [163E]
GI50 (HeLa cells): > 10 µM

CC(=O)O[C@H]1[C@H]2[C@@H]([C@@H](O)[C@@H](NC(=O)CCCn3cc(CNC(=O)CCCC[C@@H]4SC[C@@H]5NC(=O)N[C@@H]54)nn3)[C@H]3C[C@@H]4O[C@@H]4[C@H](OC(C)=O)[C@]23C)[C@@H]2[C@@H](O)[C@@H]3[C@H]([C@H](C)[C@H]4O[C@]45OC(=O)[C@@](C)(O)[C@]35C)[C@@]2(C)[C@H]1OC(C)=O [154C]
GI50 (HeLa cells): > 10 µM

CC(=O)O[C@H]1[C@H]2[C@@H]([C@@H](O)[C@@H](NC(=O)CCCn3cc(CNC(=O)c4ccc(-c5c6cc(F)c(=O)cc-6oc6cc(O)c(F)cc56)c(C(=O)O)c4)nn3)[C@H]3C[C@@H]4O[C@@H]4[C@H](OC(C)=O)[C@]23C)[C@@H]2[C@@H](O)[C@@H]3[C@H]([C@H](C)[C@H]4O[C@]45OC(=O)[C@@](C)(O)[C@]35C)[C@@]2(C)[C@H]1OC(C)=O [154B]
GI50 (HeLa cells): > 10 µM

CC(=O)Oc1ccc2c(c1)Oc1cc(OC(C)=O)ccc1C21OC(=O)c2cc(C(=O)NCCC(=O)N[C@@H]3[C@H](O)[C@H]4[C@@H]5[C@@H](O)[C@@H]6[C@H]([C@H](C)[C@H]7O[C@]78OC(=O)[C@@](C)(O)[C@]68C)[C@@]5(C)[C@@H](OC(C)=O)[C@@H](OC(C)=O)[C@@H]4[C@]4(C)[C@@H]3C[C@@H]3O[C@@H]3[C@@H]4OC(C)=O)ccc21 [162C]
GI50 (HeLa cells): 10 µM
